Patent US6203822A, “Gallium-containing compounds for the treatment of infections caused by intracellular pathogens and pathogens causing chronic pulmonary infection” (priority 1996, dated 2001)

Legend:
[1] = tested on: Macrophages (MDMs) infected with M. tuberculosis; experiment: Monolayer density of macrophages (MDMs) infected with M. tuberculosis and treated with gallium nitrate; format: cell-based, human
Procedure: Macrophages were infected with M. tuberculosis at a ratio of 1:5 (MDMs:bacteria) and treated with 500 μM or 1 mM gallium nitrate. Cell density was assessed over time. The results of the experiments comparing the monolayer integrity of untreated vs. gallium nitrate treated cultures were as follows: […]

[2] = tested on: M. tuberculosis in human macrophages; experiment: Colony-forming unit assay to assess pathogen death; format: cell-based
Procedure: (§1) Example 4 and Example 5 detail exemplary methods used to determine whether the mycobacteria strains were killed by the addition of gallium nitrate. […] The bacteria were resuspended in 7H9 broth (BBL Microbiology Systems) or onto agar plates without gallium nitrate and incubated under conditions known to promote bacterial growth. In Example 4, the growth index for these cultures was assessed after 6 weeks to determine whether bacteria are inhibited or killed. […] In Example 5, M. tuberculosis-infected macrophages cell lysates were plated onto the surface of media able to support M. tuberculosis growth. Colony forming unit assays were counted to assess bacterial death or inhibition.
The growth index assay cannot always clearly distinguish between bacterial survival (without multiplication) and bacterial death. Therefore, colony forming unit assays were also used to assess the bactericidal activity of gallium-containing compounds in these experiments. Lysed monolayers were plated in Middlebrook 7H11 plates and colonies forming on the plates were counted after 14 days. […] In fact, this experiment provided the most graphic illustration of the influence of gallium nitrate on bacterial killing. That is, control-infected monolayers were lysed as a result of bacterial multiplication so that macrophages could no longer be visualized by microscopy. […] Importantly, the results in the colony-forming unit assay resemble the results obtained with the radiometric BACTEC assay.

M. tuberculosis = experiment: Regrowth of M. tuberculosis in BACTEC system after gallium nitrate treatment (kill versus stasis); format: cell-based
Procedure: as §1
In Examples 2 and 3, gallium nitrate inhibited growth of M. tuberculosis. To determine whether the mycobacteria strains were killed by gallium nitrate or whether various concentrations of gallium nitrate were bacteriostatic, samples from the assay were tested in the BACTEC system. […] The bacteria, if present, was resuspended in 7H9 broth without gallium nitrate and incubated in the BACTEC system under conditions known in the art to promote bacterial growth.

O=[N+]([O-])[O-].O=[N+]([O-])[O-].O=[N+]([O-])[O-].[Ga+3] [gallium nitrate]
Monolayer Integrity ([1]; Experiment #2, Day 1, 24 hr postinfection, 500 μM or 1 mM): No difference between Ga-treated and control | Monolayer Integrity ([1]; Experiment #2, Day 3, 4 days postinfection, 500 μM or 1 mM): No difference between Ga-treated and control | Monolayer Integrity: times the number of cells in Ga-treated cultures ([1]; Experiment #2, Day 6, 7 days postinfection, 500 μM or 1 mM): 2-4 times | Monolayer Integrity ([1]; Experiment No. 1, Day 1, 24 h postinfection, 500 μM or 1 mM): No difference | Monolayer Integrity: more cells in Ga-treated cultures ([1]; Experiment No. 1, Day 8, 9 days postinfection, 500 μM or 1 mM): 25-50% | Monolayer Integrity: times as many cells in Ga-treated cultures ([1]; Experiment No. 1, Day 11, 12 days postinfection, 500 μM or 1 mM): 4-5 times | Monolayer Integrity: times as many cells in Ga-treated cultures ([1]; Experiment No. 1, Day 29, 30 days postinfection, 500 μM or 1 mM): 4-5 times | Monolayer Integrity ([1]; Experiment No. 1, Day 33, 34 days postinfection, control wells had no cells left): No difference between monolayers treated | colony-forming units from macrophage lysates, trend ([2]; between days 2 and 5 following gallium nitrate): continuous decrease in colony-forming units | killing of M. tuberculosis ([2]; colony forming unit assay, FIG. 5): M. tuberculosis were killed | colony-forming units relative to initial amount of bacteria in macrophages ([2]; day 5): only slightly below the initial amount of bacteria in macrophages | monolayer of treated infected macrophages ([2]; during assay, control-infected monolayers were lysed): maintained a very good monolayer | killing of bacteria (growth index after 6 weeks) (M. tuberculosis; growth index assessed after 6 weeks): the bacteria were killed | bacterial regrowth after gallium nitrate treatment (M. tuberculosis; resuspended in 7H9 broth without gallium nitrate, BACTEC): bacteria did not grow
